The source made the active and inactive calls. No cut-off for these calls is given here.

A short description of assay [1]: Competitive inhibition of Escherichia coli rhomboid GlpG preincubated for 30 mins followed by FP-Rh addition measured after 1 hr by gel-based ABPP method.
For the next assay, the target named is T1, Rhomboid protease GluP (Bacillus subtilis (strain 168), UniProt P54493).
T1 sequence (P54493 whole entry): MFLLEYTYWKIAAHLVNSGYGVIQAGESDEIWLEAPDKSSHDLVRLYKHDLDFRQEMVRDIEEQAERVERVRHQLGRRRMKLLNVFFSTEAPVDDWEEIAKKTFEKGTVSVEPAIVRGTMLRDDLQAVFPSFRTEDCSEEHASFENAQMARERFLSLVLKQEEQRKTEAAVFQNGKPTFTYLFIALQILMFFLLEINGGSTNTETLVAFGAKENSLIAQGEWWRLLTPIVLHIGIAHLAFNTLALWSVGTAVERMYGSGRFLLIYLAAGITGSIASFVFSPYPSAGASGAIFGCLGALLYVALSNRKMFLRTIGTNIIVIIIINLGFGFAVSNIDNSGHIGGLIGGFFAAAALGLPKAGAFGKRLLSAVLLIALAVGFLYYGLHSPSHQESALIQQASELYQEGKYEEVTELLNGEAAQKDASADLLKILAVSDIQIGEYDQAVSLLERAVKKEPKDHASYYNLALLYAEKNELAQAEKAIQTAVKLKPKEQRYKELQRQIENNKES
Description: Competitive inhibition of Bacillus subtilis rhomboid YqgP preincubated for 30 mins followed by FP-Rh addition measured after 1 hr by gel-based ABPP method.

Assay [2] can be described thus: Inhibition of bovine trypsin using Z-GGR-AMC as substrate preincubated for 30 mins followed by substrate addition measured for 20 mins by fluorescence assay. Also noted: species or system Bos taurus.
The subject of assay [3] is Escherichia coli. Description: Competitive inhibition of Escherichia coli rhomboid GlpG assessed as residual enzyme activity at 100 uM preincubated for 30 mins followed by FP-Rh addition measured after 1 hr by gel-based ABPP method.
Assay [4] can be described thus: Inhibition of bovine chymotrypsin using Suc-AAF-AMC as substrate preincubated for 30 mins followed by substrate addition measured for 20 mins by fluorescence assay. On the set-up: species or system Bos taurus.
The target of assay [5] is T2, Rhomboid protease GluP (Bacillus subtilis (strain 168)) (UniProt P54493).
T2 sequence (whole entry): T1 sequence (P54493 whole entry)
Description: Competitive inhibition of Bacillus subtilis rhomboid YqgP assessed as residual enzyme activity at 100 uM preincubated for 30 mins followed by FP-Rh addition measured after 1 hr by gel-based ABPP method.

A short description of assay [6]: Selectivity index, ratio of IC50 for competitive inhibition of Escherichia coli rhomboid GlpG to IC50 for competitive inhibition of Bacillus subtilis rhomboid YqgP.
Assay [7] concerns Escherichia coli. Nature of the assay: Reversible inhibition of Escherichia coli rhomboid GlpG assessed as residual activity preincubated for 30 mins followed by excess drug removal for 240 mins before FP-Rh addition measured after 1 hr by ABPP method.
A short description of assay [8]: Selectivity index, ratio of IC50 for competitive inhibition of Bacillus subtilis rhomboid YqgP to IC50 for competitive inhibition of Escherichia coli rhomboid GlpG.
The subject of assay [9] is Escherichia coli. Nature of the assay: Irreversible inhibition of Escherichia coli rhomboid GlpG assessed as residual activity at 10 uM preincubated for 30 mins followed by excess drug removal for 0 to 240 mins before FP-Rh addition measured after 1 hr by ABPP method.
The nature of assay [10]: (§1) Inhibition of rhomboid GlpG in Escherichia coli MC4100 outer membrane permeabilized mutant containing delta-lptD4213 preincubated for 15 mins followed by pPR61 (pD881-SR_MBP-LacYTM2-Trx) substrate addition measured after 4 hrs by fluorescence based Western blot. (In western blotting, separated proteins are transferred to a membrane and probed.)
The target of assay [11] is T2, Rhomboid protease GluP (Bacillus subtilis (strain 168)). Description: Competitive inhibition of Bacillus subtilis rhomboid YqgP at 100 uM preincubated for 30 mins followed by FP-Rh addition measured after 1 hr by gel-based ABPP method.
Assay [12] concerns Escherichia coli. Description: Competitive inhibition of Escherichia coli rhomboid GlpG at 100 uM preincubated for 30 mins followed by FP-Rh addition measured after 1 hr by gel-based ABPP method.
The subject of assay [13] is Escherichia coli. Description: Reversible inhibition of Escherichia coli rhomboid GlpG assessed as residual activity at 10 uM preincubated for 30 mins followed by excess drug removal for 30 mins before FP-Rh addition measured after 1 hr by ABPP method.
The test system of assay [14] is Escherichia coli. The assay is described as §1.

As a reminder, the IC50 is the point on the concentration scale where inhibition reaches its midpoint. A higher IC50 goes with lower potency. As for `O=c1oc(OCc2ccccc2)nc2c(Cl)cccc12`, the IC50 is 63 µM in assay [1], 0.47 µM on Rhomboid protease GluP, under 0.1 µM in [2] and under 0.1 µM in [4]. Further, the Activity (with Escherichia coli [3]; in [5]) was under 5% throughout. Moreover, the Ratio IC50 in assay [6] stood at 130.

Turning to `O=c1oc(Cl)c(Cl)c2ccccc12`, the Activity with Escherichia coli [7] is 50%.

For `Cc1ccc2nc(OCc3ccccc3)oc(=O)c2c1`, the IC50 on Rhomboid protease GluP was 4.6 µM; in assay [2], under 0.1 µM; in [4], under 0.1 µM. Moreover, the Activity (in the assay on Escherichia coli [3]; in assay [5]) was under 5% in each case.

As to `Cc1cccc2nc(OCc3ccccc3)oc(=O)c12`, the Ratio IC50 in assay [8] was found to be 15. For the same compound, the concentration for half-maximal inhibition (IC50) in [1] is 1 µM; at Rhomboid protease GluP it was 15 µM; in assay [2] it was under 0.1 µM; in assay [4] it was under 0.1 µM; in assay [10], 8.5 µM. Moreover, the Activity (in the assay on Escherichia coli [3]; in [5]) was under 5% each time. In addition, the inhibition result in the assay on Escherichia coli [9] was “Active”.

As to `C#CCCCc1nc2cccc(C)c2c(=O)o1`, the inhibition entry (in assay [11]; in the assay with Escherichia coli [12]) was “Active” throughout.

Consider `C#CCOc1nc2cccc(C)c2c(=O)o1`, for which the IC50 at Rhomboid protease GluP is 2.8 µM; in [2] it was 1.1 µM; in assay [4], under 0.1 µM. In addition, the Activity (with Escherichia coli [3]; in assay [5]) was under 5% each time.

As for `O=c1oc(OCc2ccccc2)nc2ccccc12`, the IC50 in assay [1] is 2.5 µM; at Rhomboid protease GluP, 3.7 µM; in assay [2], under 0.1 µM; in assay [4] it was under 0.1 µM. Besides, the Activity (in the assay on Escherichia coli [3]; in assay [5]) was under 5% in each case. Besides, in the assay with Escherichia coli [13], the inhibition result was “inactive”. The inhibition result in the assay with Escherichia coli [14] was “Active”.

Regarding `C#CCOc1nc2cccc(Cl)c2c(=O)o1`, the IC50 in assay [1] is 1.7 µM; on Rhomboid protease GluP it was 6.2 µM; in [2], 1.2 µM; in assay [4], 0.41 µM. For the same compound, the inhibition entry (in [11]; with Escherichia coli [9]; in the assay with Escherichia coli [12]) was “Active” in each case. For the same compound, the Activity (in the assay on Escherichia coli [3]; in assay [5]) was under 5% throughout. Moreover, the inhibition result with Escherichia coli [14] is “inactive”.

Take `O=c1oc(OCc2ccccc2)nc2cc3ccccc3cc12`: the IC50 is 2.4 µM in assay [1], 7.3 µM on Rhomboid protease GluP, under 0.1 µM in [2] and under 0.1 µM in [4]. Further, the Activity (in the assay with Escherichia coli [3]; in assay [5]) was under 5% each time.

For the compound `Cc1cccc2nc(OCCc3ccccc3)oc(=O)c12`, the inhibition entry (in [11]; with Escherichia coli [12]) was “inactive” each time.

Turning to `O=c1oc(OCc2ccccc2)nc2cccc(Cl)c12`, the IC50 is 1.2 µM in [1], 1.6 µM at Rhomboid protease GluP, under 0.1 µM in assay [2] and under 0.1 µM in [4]. The Activity (with Escherichia coli [3]; in assay [5]) was under 5% each time. Moreover, the inhibition result in the assay on Escherichia coli [9] was “Active”. The inhibition entry in the assay with Escherichia coli [14] was “inactive”.

As to `O=c1oc(OCCc2ccccc2)nc2cccc(Cl)c12`, the inhibition entry (in assay [11]; with Escherichia coli [12]) was “inactive” each time.

On to `C#CCCCc1nc2cccc(Cl)c2c(=O)o1`, for which the inhibition result (in assay [11]; in the assay on Escherichia coli [12]) was “Active” throughout.

On to `C#CCCOc1oc(=O)c2cc(N)ccc2c1Cl`, for which the inhibition result (in assay [11]; in the assay with Escherichia coli [12]) was “Active” in each case.

As to `CCOc1nc2cccc(Cl)c2c(=O)o1`, the IC50 in assay [1] was 2.2 µM; on Rhomboid protease GluP it was 7.1 µM; in [2] it was under 0.1 µM; in [4], under 0.1 µM. Also, the Activity (in the assay on Escherichia coli [3]; in [5]) was under 5% in each case. Moreover, the inhibition entry in the assay with Escherichia coli [9] was “Active”. For the same compound, the inhibition entry in the assay on Escherichia coli [14] is “inactive”.

These data come from ChEMBL document CHEMBL4219119, “Benzoxazin-4-ones as novel, easily accessible inhibitors for rhomboid proteases” (Bioorg Med Chem Lett, 2018).
